Experimental data from US20260221482A1, “REDOX FLOW BATTERY” (CAMBRIDGE ENTERPRISE LIMITED, priority 2023, published 2026).
Values belong to the molecule of their own block, whether it stands above or below them.

Experiments:
Type in all cases: physicochemical
[1] = Cyclic voltammetry in N2 purged 0.1 M NaCl aqueous solutions; details: 1 mM
Description: Cyclic voltammetry experiments were carried out at 25° C. in N2 purged 0.1 M NaCl aqueous solutions with a Metrohm Eco Chemie Autolab PGSTAT12 potentiostat, working on GPES 4.9 software. A three-electrode configuration was used with a 3 mm or 1.6 mm glassy carbon working electrode, a platinum counter electrode, and RE-5B Ag/AgCl BASI reference electrode. The glassy carbon electrode was polished before each measurement using a 0.05 μm alumina-H2O slurry on a polishing cloth. CV was performed at 1 mM concentrations of the respective compound using a scan rate of 20 mV s^−1.

[2] = In situ DOSY NMR of flowing electrolyte at various SOCs; details: diffusivity
Description: Pseudo-2D NMR experiments were performed on the flowing electrolyte solution by direct excitation with a 90° radiofrequency pulse. Each NMR spectrum is acquired by collecting eight free induction decays with a recycle delay of 15 s. The pulse width for a 90° pulse was 27 μs at 30 W. All spectra were referenced to the water chemical shift at 4.79 ppm. NMR data were processed using TopSpin 3.6.3 (Bruker). EPR data were processed using EasySpin version 5.2.30. Electrochemical data were processed using EC-lab 11.36 (BioLogic).
The flow was stopped during the acquisition period (12 min) to carry out the DOSY NMR.
In situ DOSY NMR experiments carried out for 10, 11, and 13 at 0%, 50%, and 100% SOC (Table 1).

[3] = EPR and CV modelling studies of redox equilibria (comproportionation, π-dimerisation); details: for Kc from CV: comproportionation equilibrium constant from CV curve fitting; for Kd: equilibrium constant of π-dimerisation of singly reduced form, estimated at 50% SOC; for Kc, obs from EPR: observed comproportionation equilibrium constant, fit of spin counting radical fraction
Description: An analysis of compounds 10, 11, and 13 associated redox equilibria was carried out. Expressing the two single electron reductions as a comproportionation equilibrium with an equilibrium constant of comproportionation, Kc, an equation for radical fraction as a function of battery SOC was obtained.
The difference between redox events is related to the comproportionation equilibrium constant Kc by:
For the compounds comproportionation equilibrium:
fits to experimental radical concentration data were obtained by:
Where n is the number of electrons that have been removed from the system, starting from 100% SOC and x is the fraction of radicals.
For π-dimerisation equilibria, Kd values were estimated as follows. At 50% SOC, 1 electron equivalent of the starting concentration of viologen, V0, has been added to create reduced species, thus giving the previous result:
As the initial concentration (V0), Kc and the radical concentration (V^3+·) at this state of charge is known, the dimerisation constant can be calculated with:
This equation was used to fit experimental radical fraction data obtained by the EPR-based method of spin counting, from which the observed comproportionation equilibrium constant Kc,obs was extracted. Upon fitting, Kc,obs values of 0.75, 0.021 and 0.0021 were found for 10, 11, and 13, respectively (Table 2).
The equation was also used for CV curve fitting, from which much better agreement with experimental data was obtained. Relating the difference in first and second redox events obtained by CV curve fitting to Kc, ‘true’ Kc values could be estimated and compared to Kc,obs values. Respective Ko values for 10, 11, and 13 were 3.2×10^5, 1.3 and 2.9 (see Table 2)—substantially higher than the Kc,obs values. […] The strongest candidates for these are dimerisation equilibria.

[4] = Rates of electron transfer
[5] = Additional cyclic voltammetry under nitrogen and under air; details: 1 mM, 0.1 M NaCl
Description: Cyclic voltammetry experiments were carried out for aqueous solutions of compound 20 and 10 at 25° C. and a concentration of 1 mM in 0.1 M NaCl with a Metrohm Eco Chemie Autolab PGSTAT12 potentiostat, working on GPES 4.9 software. Where the CV was carried out under nitrogen the solution was purged with nitrogen. A three-electrode configuration was used with a 3 mm glassy carbon working electrode, a platinum counter electrode, and RE-5B Ag/AgCl BASI reference electrode. The glassy carbon electrode was polished before each measurement using a 0.05 μm alumina-H2O slurry on a polishing cloth. CV was performed using a scan rate of 20 mV s^−1.

Structure (SMILES): C[N+](C)(C)CCC[n+]1ccc(-c2cc[n+](CCC[N+](C)(C)C)cc2)cc1 [Compound 10]
redox reversibility by cyclic voltammetry [1]: reversible redox processes
reversible potential, first reduction ([1]; vs SHE, 25° C., 20 mV s^−1): −0.35 V
reversible potential, second reduction ([1]; vs SHE, 25° C., 20 mV s^−1): −0.68 V
D at 0% SOC [2]: 3.6 ± 0.1 ×10^−10 m^2 s^−1
D at 50% SOC [2]: 3.6 ± 0.2 ×10^−10 m^2 s^−1
D at 100% SOC [2]: 3.4 ± 0.1 ×10^−10 m^2 s^−1
average Kc extracted from the radical concentration [3]: 0.7
Kc from CV [3]: 3.2×10^5
Kd [3]: 0.28 mM⁻¹
Kc, obs from EPR [3]: 0.75

Structure (SMILES): C[N+](C)(C)CCC[n+]1ccc(-c2ccc(-c3cc[n+](CCC[N+](C)(C)C)cc3)cc2)cc1 [Compound 11]
redox reversibility by cyclic voltammetry [1]: reversible redox processes
D at 0% SOC [2]: 3.1 ± 0.1 ×10^−10 m^2 s^−1
D at 50% SOC [2]: 2.4 ± 0.2 ×10^−10 m^2 s^−1
D at 100% SOC [2]: 1.6 ± 0.1 ×10^−10 m^2 s^−1
average Kc extracted from the radical concentration [3]: 0.2
Kc from CV [3]: 1.3
Kd [3]: 11 mM⁻¹
Kc, obs from EPR [3]: 0.021
rate of electron transfer k0 [4]: 0.0198 cm/s

Structure (SMILES): C[N+](C)(C)CCC[n+]1ccc(-c2ccc(-c3cc[n+](CCC[N+](C)(C)C)cc3)c3ccccc23)cc1 [Compound 12]
redox reversibility by cyclic voltammetry [1]: reversible redox processes

Structure (SMILES): C[N+](C)(C)CCC[n+]1ccc(-c2ccc3cc(-c4cc[n+](CCC[N+](C)(C)C)cc4)ccc3c2)cc1 [Compound 13]
redox reversibility by cyclic voltammetry [1]: reversible redox processes
D at 0% SOC [2]: 2.8 ± 0.1 ×10^−10 m^2 s^−1
D at 50% SOC [2]: 1.9 ± 0.2 ×10^−10 m^2 s^−1
D at 100% SOC [2]: 2.1 ± 0.5 ×10^−10 m^2 s^−1
average Kc extracted from the radical concentration [3]: 0.002
Kc from CV [3]: 2.9
Kd [3]: 76 mM⁻¹
Kc, obs from EPR [3]: 0.0021

Structure (SMILES): C[N+](C)(C)CCC[n+]1ccc(-c2ccc3ccc(-c4cc[n+](CCC[N+](C)(C)C)cc4)cc3c2)cc1 [Compound 14]
redox reversibility by cyclic voltammetry [1]: does not have a reversible potential

Structure (SMILES): C[N+](C)(C)CCC[n+]1ccc(-c2c3ccccc3c(-c3cc[n+](CCC[N+](C)(C)C)cc3)c3ccccc23)cc1 [Compound 15]
redox reversibility by cyclic voltammetry [1]: electrochemically irreversible

Structure (SMILES): C[N+](C)(C)c1ccc(-[n+]2ccc(-c3cc[n+](-c4ccc([N+](C)(C)C)cc4)cc3)cc2)cc1 [Compound 20]
tolerance to oxygen (voltammogram under nitrogen vs under air) [5]: highly tolerant to the presence of oxygen
reversible reduction potential, first ([5]; vs SHE, 25° C., 20 mV s^−1): −0.147 V
reversible reduction potential, second ([5]; vs SHE, 25° C., 20 mV s^−1): −0.386 V

Structure (SMILES): O=O [Compound O2, dioxygen]
rate of electron transfer k0 [4]: 0.00084 cm/s

Continued, in another order:

redox reversibility by cyclic voltammetry [1]: electrochemically irreversible
Structure (SMILES): C[N+](C)(C)CCC[n+]1ccc(-c2ccc(-c3ccc(-c4cc[n+](CCC[N+](C)(C)C)cc4)cc3)cc2)cc1 [Compound 16]

redox reversibility by cyclic voltammetry [1]: reversible redox processes
reversible potential, second reduction ([1]; vs SHE, 25° C., 20 mV s^−1): −0.67 V
Structure (SMILES): C[N+](C)(C)CCC[n+]1ccc(-c2ccc(-c3cc[n+](CCC[N+](C)(C)C)cc3)s2)cc1 [Compound 17]
rate of electron transfer k0 [4]: 0.0028 cm/s

redox reversibility by cyclic voltammetry [1]: reversible redox processes
Structure (SMILES): C[N+](C)(C)CCC[n+]1ccc(-c2ccc(-c3ccc(-c4cc[n+](CCC[N+](C)(C)C)cc4)s3)s2)cc1 [Compound 18]

redox reversibility by cyclic voltammetry [1]: does not have a reversible potential
Structure (SMILES): C[N+](C)(C)CCC[n+]1ccc(-c2cccc(-c3cc[n+](CCC[N+](C)(C)C)cc3)n2)cc1 [Compound 19]
